This passage reports MIC results from patent publication US8309110B2, “Biocide composition and sterilization method using the same” (priority 1998, dated 2012).

Molecules are shown by their SMILES.

In the assay the test system is mixed solution of 8 types of bacteria. Briefly: MIC and synergistic index on a mixed solution of 8 types of bacteria, two fold dilution method. Conditions: 72 h; 30 degrees centigrade, 3 days, Tryptic Soy Broth; read-out: Qa: MIC value on the mixed strain of a single 3-isothiazolone. The assay is classed as cell-based. As to the method: The sterilizing effects of 3-isothiazolone and polyhexamethyleneguanidine phosphate on a mixed solution of 8 types of bacteria (Enterobacter aerogens ATCC 13048, Escherichia coli ATCC 11229, Micrococcus luteus ATCC 9341, Pseudomonas aeruginosa ATCC 15442, Klebsiella pneumoniae, Staphylococcus epidermis ATCC 155, Staphylococcus aureus ATCC 6538, and Bacillus subtilis ATCC 6984) were tested using Tryptic Soy Broth manufactured by Difco Corporation according to the two fold dilution method. The minimum inhibiting concentration of each biocide and mixtures thereof were determined by observation with the naked eye of the degree of muddiness of the lowest concentration in which growth was deteriorated after culturing a culture fluid in which biocides and microorganisms are added at 30 degrees centigrade for 3 days.

Take `O=c1ccs[nH]1` [3-isothiazolone]: the MIC was determined as 18.8 mg/L.
